From patent publication US20260158014A1, “METHODS OF ADMINISTERING VOXELOTOR” (Global Blood Therapeutics, Inc., priority 2021, published 2026)

Legend:
CYP3A4 = CYP3A4 (Homo sapiens, UniProt P08684); assay: Clinical probe-substrate DDI study: midazolam; conditions: healthy subjects
Protocol: The effect of voxelotor on the pharmacokinetics (PK) of a single dose of caffeine, warfarin sodium, omeprazole, and midazolam hydrochloride, which are probe substrates for cytochrome P450 (CYP)1A2, CYP2C9, CYP2C19, and CYP3A4, respectively, were studied in healthy subjects. During Period 1, subjects received a single dose of caffeine 100 mg, warfarin sodium 10 mg+vitamin K 10 mg, omeprazole 20 mg, and midazolam hydrochloride 2 mg on Day 1. During Period 2, subjects received voxelotor 900 mg QD on Days 1 and 2 followed by 600 mg QD on Day 3, a single dose of caffeine 100 mg, warfarin sodium 10 mg+vitamin K 10 mg, omeprazole 20 mg, and midazolam hydrochloride 2 mg on Day 4, and voxelotor 600 mg QD on Days 4 through 7.
Whole blood and plasma concentrations of voxelotor and plasma concentrations of caffeine, paraxanthine, S-warfarin, omeprazole, 5-hydroxyomeprazole, midazolam, and 1-hydroxymidazolam were determined using validated assays.

P-gp = P-gp (Homo sapiens, UniProt P08183); assay: Clinical DDI: voxelotor on digoxin; conditions: in vivo
[1] = voxelotor 900 mg QD days 1-2, then 600 mg QD, midazolam hydrochloride 2 mg single dose

Chain of CYP3A4 (P08684 whole entry): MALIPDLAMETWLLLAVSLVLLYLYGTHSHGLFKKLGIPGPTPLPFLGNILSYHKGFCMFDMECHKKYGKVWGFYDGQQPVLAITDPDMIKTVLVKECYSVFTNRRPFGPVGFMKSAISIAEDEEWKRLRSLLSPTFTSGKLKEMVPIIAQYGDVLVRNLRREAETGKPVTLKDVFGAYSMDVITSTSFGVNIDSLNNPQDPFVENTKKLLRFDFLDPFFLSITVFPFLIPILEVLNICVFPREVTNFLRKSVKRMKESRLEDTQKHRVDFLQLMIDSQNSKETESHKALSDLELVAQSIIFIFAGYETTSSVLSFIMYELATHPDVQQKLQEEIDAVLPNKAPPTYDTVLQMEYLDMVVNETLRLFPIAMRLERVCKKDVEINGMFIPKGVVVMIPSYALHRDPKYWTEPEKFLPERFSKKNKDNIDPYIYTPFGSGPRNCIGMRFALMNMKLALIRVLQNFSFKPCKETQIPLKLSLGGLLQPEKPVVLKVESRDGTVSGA
Chain of P-gp (P08183 whole entry): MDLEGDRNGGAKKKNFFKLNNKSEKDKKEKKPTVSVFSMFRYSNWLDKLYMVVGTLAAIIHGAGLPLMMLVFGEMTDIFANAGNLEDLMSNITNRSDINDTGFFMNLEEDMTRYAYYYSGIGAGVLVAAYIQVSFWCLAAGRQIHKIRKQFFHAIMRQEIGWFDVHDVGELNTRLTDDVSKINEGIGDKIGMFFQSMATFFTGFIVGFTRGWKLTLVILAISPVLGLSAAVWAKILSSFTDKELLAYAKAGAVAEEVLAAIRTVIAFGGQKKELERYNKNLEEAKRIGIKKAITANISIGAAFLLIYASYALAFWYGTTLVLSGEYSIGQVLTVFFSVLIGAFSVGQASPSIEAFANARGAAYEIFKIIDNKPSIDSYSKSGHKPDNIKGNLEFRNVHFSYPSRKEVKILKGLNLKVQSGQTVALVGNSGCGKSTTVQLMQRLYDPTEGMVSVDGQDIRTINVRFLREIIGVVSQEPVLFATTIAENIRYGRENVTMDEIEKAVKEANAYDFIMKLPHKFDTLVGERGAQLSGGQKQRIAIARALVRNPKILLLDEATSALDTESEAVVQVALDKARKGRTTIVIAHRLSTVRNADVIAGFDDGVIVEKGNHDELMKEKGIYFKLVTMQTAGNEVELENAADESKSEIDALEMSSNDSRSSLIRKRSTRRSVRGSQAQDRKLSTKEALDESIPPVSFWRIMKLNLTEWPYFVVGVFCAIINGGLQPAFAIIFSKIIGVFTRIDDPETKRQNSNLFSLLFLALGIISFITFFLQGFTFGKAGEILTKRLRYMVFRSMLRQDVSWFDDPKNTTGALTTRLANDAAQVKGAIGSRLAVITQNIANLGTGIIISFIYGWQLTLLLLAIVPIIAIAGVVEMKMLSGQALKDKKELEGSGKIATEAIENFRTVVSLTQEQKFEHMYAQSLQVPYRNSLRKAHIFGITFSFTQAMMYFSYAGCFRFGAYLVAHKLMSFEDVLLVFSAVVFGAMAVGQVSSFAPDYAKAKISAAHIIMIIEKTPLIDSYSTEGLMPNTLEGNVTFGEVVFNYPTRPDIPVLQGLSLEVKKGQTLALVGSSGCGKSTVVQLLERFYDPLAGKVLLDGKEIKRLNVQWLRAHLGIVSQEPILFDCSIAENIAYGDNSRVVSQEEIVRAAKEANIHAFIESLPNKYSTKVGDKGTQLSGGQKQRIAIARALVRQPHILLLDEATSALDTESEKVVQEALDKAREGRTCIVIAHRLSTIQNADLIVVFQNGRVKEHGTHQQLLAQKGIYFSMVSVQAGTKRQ

In the case of `OCc1ncc2n1-c1ccc(Cl)cc1C(c1ccccc1F)=NC2` [1′-hydroxy-midazolam], the “increase of overall exposure of midazolam metabolite in the presence of voxelotor” value (CYP3A4; [1]) is reported as 75%.
In the case of `Cc1ncc2n1-c1ccc(Cl)cc1C(c1ccccc1F)=NC2` [midazolam], the “observed exposure increase of midazolam with voxelotor” value (CYP3A4) is reported as 1.6 fold and the “increase of overall exposure of midazolam in the presence of voxelotor” value (CYP3A4; [1]) is reported as 63%.
`C[C@H]1O[C@@H](O[C@H]2[C@@H](O)C[C@H](O[C@H]3[C@@H](O)C[C@H](O[C@H]4CC[C@@]5(C)[C@H](CC[C@@H]6[C@@H]5C[C@@H](O)[C@]5(C)[C@@H](C7=CC(=O)OC7)CC[C@]65O)C4)O[C@@H]3C)O[C@@H]2C)C[C@H](O)[C@@H]1O` [digoxin] was tested, and the “effect of concomitant OXBRYTA on digoxin (P-gp substrate)” value (P-gp) was “did not alter digoxin to a clinically relevant extent”.
